According to ChEMBL document CHEMBL1909046, “DrugMatrix in vitro pharmacology data”:

Tests used:
[1] = target: T1, Alpha-1A adrenergic receptor (Rattus norvegicus, UniProt P43140); experiment: DRUGMATRIX: Alpha-1A adrenergic receptor radioligand binding (ligand: prazosin); type: cell membranes, Wistar, Submaxillary gland, Membrane; conditions: Not Active = under 50% inhibition at 10 µM; for Ki: read-out: Ki
T1 sequence (P43140 whole entry): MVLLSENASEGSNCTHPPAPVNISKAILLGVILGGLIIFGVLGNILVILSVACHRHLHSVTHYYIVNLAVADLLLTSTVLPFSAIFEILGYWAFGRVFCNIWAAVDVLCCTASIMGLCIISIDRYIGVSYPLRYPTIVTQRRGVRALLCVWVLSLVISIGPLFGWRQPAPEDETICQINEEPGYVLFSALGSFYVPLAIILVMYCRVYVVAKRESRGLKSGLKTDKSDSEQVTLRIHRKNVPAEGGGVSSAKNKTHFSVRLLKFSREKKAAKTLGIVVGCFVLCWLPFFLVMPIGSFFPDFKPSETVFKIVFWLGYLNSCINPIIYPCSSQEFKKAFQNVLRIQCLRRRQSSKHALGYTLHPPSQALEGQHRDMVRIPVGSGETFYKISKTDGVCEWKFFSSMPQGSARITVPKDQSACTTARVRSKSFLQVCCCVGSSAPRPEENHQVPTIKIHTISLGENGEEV

[2] = target: T2, C-X-C chemokine receptor type 1 (Homo sapiens, UniProt P25024); further: in other assays of this panel Not Active means under 50% inhibition at 10 µM
T2 sequence (P25024 whole entry): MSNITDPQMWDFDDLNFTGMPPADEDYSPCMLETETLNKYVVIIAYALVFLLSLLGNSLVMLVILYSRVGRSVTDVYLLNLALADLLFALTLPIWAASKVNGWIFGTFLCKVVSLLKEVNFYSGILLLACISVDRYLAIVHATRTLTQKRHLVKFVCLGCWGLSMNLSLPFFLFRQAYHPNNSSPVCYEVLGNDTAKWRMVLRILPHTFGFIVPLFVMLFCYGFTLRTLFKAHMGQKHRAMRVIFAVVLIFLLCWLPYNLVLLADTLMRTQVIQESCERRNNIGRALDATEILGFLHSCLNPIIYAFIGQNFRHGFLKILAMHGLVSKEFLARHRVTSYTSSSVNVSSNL

[3] = target: Epidermal growth factor receptor (Homo sapiens, UniProt P00533); experiment: DRUGMATRIX: Protein Tyrosine Kinase, EGF Receptor enzyme inhibition (substrate: Poly(Glu:Tyr)); type: cell-based, Insect cells; conditions: insect cells; Not Active = under 50% inhibition at 10 µM
Calcitonin receptor = target: T3, Calcitonin receptor (Homo sapiens, UniProt P30988); type: cell membranes, Membrane; conditions: t47d; further: in other assays of this panel Not Active means under 50% inhibition at 10 µM
T3 sequence (P30988 whole entry): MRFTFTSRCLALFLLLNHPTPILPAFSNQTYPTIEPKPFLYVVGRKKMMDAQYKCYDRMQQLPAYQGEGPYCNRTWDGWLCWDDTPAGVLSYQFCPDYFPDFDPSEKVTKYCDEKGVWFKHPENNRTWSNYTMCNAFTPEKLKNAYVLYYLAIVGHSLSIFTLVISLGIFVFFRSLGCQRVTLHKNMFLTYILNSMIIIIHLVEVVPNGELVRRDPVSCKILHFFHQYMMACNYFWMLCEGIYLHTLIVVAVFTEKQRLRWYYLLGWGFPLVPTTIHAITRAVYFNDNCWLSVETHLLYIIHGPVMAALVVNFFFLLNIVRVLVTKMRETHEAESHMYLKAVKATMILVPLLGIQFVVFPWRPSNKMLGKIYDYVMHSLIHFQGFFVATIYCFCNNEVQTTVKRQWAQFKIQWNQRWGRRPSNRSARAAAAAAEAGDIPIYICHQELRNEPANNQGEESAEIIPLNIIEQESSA

[4] = DRUGMATRIX: Leukotriene, BLT (LTB4) radioligand binding (ligand: [3H]LTB4); type: cell membranes, Membrane; conditions: u-937; Not Active = under 50% inhibition at 10 µM
Glycine receptor = Glycine receptor (Rattus norvegicus, UniProt P22771+P24524+P07727+P20781); type: cell membranes, Wistar, Spinal cord, Membrane; further: in other assays of this panel Not Active means under 50% inhibition at 10 µM
Melanocortin receptor 3 = Melanocortin receptor 3 (Homo sapiens, UniProt P41968); type: cell membranes, HEK293, Membrane; conditions: hek293; further: in other assays of this panel Not Active means under 50% inhibition at 10 µM
Cathepsin G = target: T4, Cathepsin G (Homo sapiens, UniProt P08311); type: tissue-based; conditions: neutrophil
T4 sequence (P08311 whole entry): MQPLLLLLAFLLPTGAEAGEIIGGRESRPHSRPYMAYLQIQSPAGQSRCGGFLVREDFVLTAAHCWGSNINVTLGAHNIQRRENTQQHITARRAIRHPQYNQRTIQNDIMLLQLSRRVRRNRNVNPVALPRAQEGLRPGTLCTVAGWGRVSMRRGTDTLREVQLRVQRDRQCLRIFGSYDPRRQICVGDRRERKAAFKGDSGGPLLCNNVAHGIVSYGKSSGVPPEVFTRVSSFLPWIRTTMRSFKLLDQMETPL

Sequence of Epidermal growth factor receptor (P00533 whole entry): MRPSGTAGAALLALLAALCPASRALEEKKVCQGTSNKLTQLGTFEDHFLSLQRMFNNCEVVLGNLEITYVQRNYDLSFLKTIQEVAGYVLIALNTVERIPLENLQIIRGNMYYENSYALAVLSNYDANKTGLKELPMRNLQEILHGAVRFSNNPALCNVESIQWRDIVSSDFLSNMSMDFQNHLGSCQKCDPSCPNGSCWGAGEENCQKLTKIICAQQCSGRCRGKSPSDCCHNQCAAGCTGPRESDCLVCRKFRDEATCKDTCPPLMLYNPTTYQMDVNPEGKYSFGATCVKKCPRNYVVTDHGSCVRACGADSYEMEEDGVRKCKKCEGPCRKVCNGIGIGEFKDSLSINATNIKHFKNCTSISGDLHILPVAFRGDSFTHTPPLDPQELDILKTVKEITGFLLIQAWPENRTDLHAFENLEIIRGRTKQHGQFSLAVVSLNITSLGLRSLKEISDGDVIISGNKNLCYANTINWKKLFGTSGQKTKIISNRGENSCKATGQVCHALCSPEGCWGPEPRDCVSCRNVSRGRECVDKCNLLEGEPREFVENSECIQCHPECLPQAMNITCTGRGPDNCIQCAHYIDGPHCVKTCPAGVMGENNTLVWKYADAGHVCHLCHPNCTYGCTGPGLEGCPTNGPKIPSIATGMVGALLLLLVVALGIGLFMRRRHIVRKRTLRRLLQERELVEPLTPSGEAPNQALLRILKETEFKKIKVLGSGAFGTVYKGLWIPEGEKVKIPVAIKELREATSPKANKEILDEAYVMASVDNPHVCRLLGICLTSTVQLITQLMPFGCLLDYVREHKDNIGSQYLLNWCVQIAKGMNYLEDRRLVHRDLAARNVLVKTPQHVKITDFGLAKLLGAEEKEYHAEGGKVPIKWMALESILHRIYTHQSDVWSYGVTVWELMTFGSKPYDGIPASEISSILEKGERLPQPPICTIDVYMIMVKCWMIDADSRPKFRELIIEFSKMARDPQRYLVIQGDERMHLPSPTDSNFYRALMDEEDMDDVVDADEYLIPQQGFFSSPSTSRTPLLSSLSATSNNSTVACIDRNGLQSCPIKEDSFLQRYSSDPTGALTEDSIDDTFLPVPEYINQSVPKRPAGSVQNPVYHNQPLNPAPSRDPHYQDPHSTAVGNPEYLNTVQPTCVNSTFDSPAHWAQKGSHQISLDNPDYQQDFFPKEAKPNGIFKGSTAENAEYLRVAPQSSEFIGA
Sequence of Melanocortin receptor 3 (P41968 whole entry): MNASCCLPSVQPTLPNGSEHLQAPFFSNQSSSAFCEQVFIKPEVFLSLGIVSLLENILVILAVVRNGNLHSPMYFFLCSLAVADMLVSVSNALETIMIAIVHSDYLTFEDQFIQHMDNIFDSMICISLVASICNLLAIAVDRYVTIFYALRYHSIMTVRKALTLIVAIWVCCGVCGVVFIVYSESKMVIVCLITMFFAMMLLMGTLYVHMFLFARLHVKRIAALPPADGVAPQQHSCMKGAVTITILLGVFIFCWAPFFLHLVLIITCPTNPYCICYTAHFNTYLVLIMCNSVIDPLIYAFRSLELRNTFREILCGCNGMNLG

Row | Compound | IC50 [1] | IC50 [2] | IC50 [3] | IC50 (Calcitonin receptor) | IC50 [4] | Ki [4] | IC50 (Glycine receptor) | IC50 (Melanocortin receptor 3) | IC50 (Cathepsin G) | IC50 ([1]; read-out: IC50) [µM] | Ki [1] [µM]
1 | CN(C)[C@@H]1C(O)=C(C(N)=O)C(=O)[C@@]2(O)C(O)=C3C(=O)c4c(O)ccc(Cl)c4[C@@](C)(O)[C@H]3C[C@@H]12 [CHLORTETRACYCLINE] | Not Active | Not Active | Not Active | Not Active | Not Active | Not Active | Not Active | Not Active | Not Active |  | 
2 | CN/C(=N\CCSCc1nc[nH]c1C)NC#N [CIMETIDINE] | Not Active | Not Active | Not Active | Not Active | Not Active | Not Active | Not Active | Not Active | Not Active |  | 
3 | COc1cc(N)c(Cl)cc1C(=O)NC1CCN(CCCOc2ccc(F)cc2)CC1OC (stereo not drawn) [CISAPRIDE] |  | Not Active | Not Active | Not Active | Not Active | Not Active | Not Active | Not Active | Not Active | 0.12 | 0.049
4 | CCC(=O)O[C@]1(C(=O)CCl)[C@@H](C)C[C@H]2[C@@H]3CCC4=CC(=O)C=C[C@]4(C)[C@@]3(F)[C@@H](O)C[C@@]21C [CLOBETASOL PROPIONATE] | Not Active | Not Active | Not Active | Not Active | Not Active | Not Active | Not Active | Not Active | Not Active |  | 
5 | O=C1CN=C(c2ccccc2Cl)c2cc([N+](=O)[O-])ccc2N1 [CLONAZEPAM] | Not Active | Not Active | Not Active | Not Active | Not Active | Not Active | Not Active | Not Active | Not Active |  | 
6 | Nc1ccn([C@@H]2O[C@H](CO)[C@@H](O)[C@@H]2O)c(=O)n1 [CYTARABINE] | Not Active | Not Active | Not Active | Not Active | Not Active | Not Active | Not Active | Not Active | Not Active |  | 
7 | C[C@@H]1C[C@H]2[C@@H]3CCC4=CC(=O)C=C[C@]4(C)[C@@]3(F)[C@@H](O)C[C@]2(C)[C@H]1C(=O)CO [DESOXIMETASONE] | Not Active | Not Active | Not Active | Not Active | Not Active | Not Active | Not Active | Not Active | Not Active |  | 
8 | C[C@@H]1C[C@H]2[C@@H]3CCC4=CC(=O)C=C[C@]4(C)[C@@]3(F)[C@@H](O)C[C@]2(C)[C@@]1(O)C(=O)CO [DEXAMETHASONE] | Not Active | Not Active | Not Active | Not Active | Not Active | Not Active | Not Active | Not Active | Not Active |  | 
9 | CN(C)CC[C@@H](c1ccc(Cl)cc1)c1ccccn1 [DEXCHLORPHENIRAMINE] | Not Active | Not Active | Not Active | Not Active | Not Active | Not Active | Not Active | Not Active | Not Active |  | 
10 | C[C@@H]1CC[C@@]2(OC1)O[C@H]1[C@@H](O)[C@H]3[C@@H]4CC[C@H]5C[C@@H](O[C@@H]6O[C@H](CO)[C@H](O[C@@H]7O[C@H](CO)C(O)[C@H](O[C@@H]8OC[C@@H](O)[C@H](O)[C@H]8O)[C@H]7O[C@@H]7O[C@H](CO)[C@H](O)[C@H](O[C@@H]8O[C@H](CO)[C@@H](O)[C@H](O)[C@H]8O)[C@H]7O)[C@H](O)[C@H]6O)[C@H](O)C[C@]5(C)[C@H]4CC[C@]3(C)[C@H]1[C@@H]2C (stereo partly drawn) [DIGITONIN] | Not Active | Not Active | Not Active | Not Active | Not Active | Not Active | Not Active | Not Active | Not Active |  | 
11 | OC(CCCN1CCCCC1)(c1ccccc1)c1ccccc1 [DIPHENIDOL] | Not Active | Not Active | Not Active | Not Active | Not Active | Not Active | Not Active | Not Active | Not Active |  | 
12 | C[C@H]1O[C@@H](n2cc(F)c(=O)[nH]c2=O)[C@H](O)[C@@H]1O [DOXIFLURIDINE] | Not Active | Not Active | Not Active | Not Active | Not Active | Not Active | Not Active | Not Active | Not Active |  | 
13 | Cn1c(=O)c2c(ncn2CC(O)CO)n(C)c1=O (stereo not drawn) [DYPHYLLINE] | Not Active | Not Active | Not Active | Not Active | Not Active | Not Active | Not Active | Not Active | Not Active |  | 
14 | CC[C@H]1CN2CCc3cc(OC)c(OC)cc3[C@@H]2C[C@@H]1C[C@H]1NCCc2cc(OC)c(OC)cc21 [EMETINE] |  | Not Active | Not Active | Not Active | Not Active | Not Active | Not Active | Not Active | Not Active | 6.53 | 2.64
15 | C[C@@H](CO)NC(=O)[C@@H]1C=C2c3cccc4[nH]cc(c34)C[C@H]2N(C)C1 [ERGONOVINE] | Not Active | Not Active | Not Active | Not Active | Not Active | Not Active | Not Active | Not Active | Not Active |  | 
16 | COC(=O)CCc1ccc(OCC(O)CNC(C)C)cc1 (stereo not drawn) [ESMOLOL] | Not Active | Not Active | Not Active | Not Active | Not Active | Not Active | Not Active | Not Active | Not Active |  | 
17 | CCC1(C)CC(=O)NC1=O (stereo not drawn) [ETHOSUXIMIDE] | Not Active | Not Active | Not Active | Not Active | Not Active | Not Active | Not Active | Not Active | Not Active |  | 
18 | C#C[C@]1(OC(C)=O)CC[C@H]2[C@@H]3CCC4=C[C@@H](OC(C)=O)CC[C@@H]4[C@H]3CC[C@@]21C [ETHYNODIOL DIACETATE] | Not Active | Not Active | Not Active | Not Active | Not Active | Not Active | Not Active | Not Active | Not Active |  | 
19 | COc1cc([C@@H]2c3cc4c(cc3[C@@H](O[C@@H]3O[C@@H]5CO[C@@H](C)O[C@H]5[C@H](O)[C@H]3O)[C@H]3COC(=O)[C@H]23)OCO4)cc(OC)c1O [ETOPOSIDE] | Not Active | Not Active | Not Active | Not Active | Not Active | Not Active | Not Active | Not Active | Not Active |  | 
